The target of one series is T1, hSTING-R232 (Homo sapiens, UniProt Q86WV6, H232R).
T1 construct: host or cells: THP1 Dual KI-hSTING-R232 (STING HAQ gene removed, R232 variant gene introduced)
Nature of the series: STING agonist activity, THP1 Dual KI-hSTING-R232 IRF luciferase reporter cells. The class given is cell-based. To be noted: 24 hours. As to the method:
(§1) In order to evaluate the activity of the STING agonist, reporter cells from Invivogen were used. The cell lines used in the experiment were THP1 Dual™ (InvivoGen #thpd-nfis) expressing the endogenous STING variant HAQ and THP1 Dual™ KI-hSTING-R232 (InvivoGen #thpd-r232/h232) into which the STING R232 or H232 variant gene was injected after removing the STING HAQ gene. The cell lines have a luciferase reporter gene inserted below the IFN regulatory factor (IRF) promoter, and thus the activity of the IFN regulatory factor (IRF) mechanism can be evaluated through luciferase expression.
(§2) The reporter cells were plated at 9.0×10^4 cells/100 μL per well in a 96-well plate using RPMI 1640 medium (Gibco, #22400097) supplemented with 10% heat-inactivated FBS and 1×Antibiotic-Antimycotic (Gibco, #15240062), 10 μg/mL blasticidin (Gibco, #A1113902), and 100 μg/mL Zeocin (Gibco, #R25005). The plated cells were cultured at 37° C., 5% CO2 for 24 hours, and then treated with 100 μL of the serially diluted compound in each well, and then cultured at 37° C., 5% CO2 for 24 hours. After culturing, 20 μL of the cell culture medium was transferred to a 96 well white plate, and QUANTI-Luc™ (InvivoGen #rep-qlcl) was added at 50 µL/well. Using a microplate reader (Perkin Elmer), the value of the luminescence signal increased in the experimental group treated with the drug compared to the control group not treated with the drug was calculated. EC50 values were derived according to the concentration of the compound using GraphPad Prism.
For orientation: A reporter such as luciferase makes a cellular process visible.

The next series concerns the target T2, human STING (Homo sapiens, UniProt Q86WV6).
T2 construct: purchased Cisbio #64BDSTGPEG
Nature of the series: Direct binding potency, HUMAN STING WT BINDING KIT (Cisbio). To be noted: in vitro. The source says:
Additionally, or analysis of direct binding potency of STING agonist compounds described herein to human STING, HUMAN STING WT BINDING KIT (Cisbio, #64BDSTGPEG) was used according to the manufacturer's instruction.

Series [1] is described as follows: Pharmacokinetics in Balb/C mouse after single IV dose. To be noted: 1.5 mg/kg; for AUC(0-inf) / AUC(0-t) / C0 / Cmax / AUC∞, norm / Cmax, norm: n = 3, plasma; for AUC∞, norm / Cmax, norm: dose-normalized; for clearance / half-life / Vd: plasma; for clearance / half-life: n = 3; for Vd: n = 3, read-out: VSS. The class given is in vivo. As to the method:
For in vivo evaluation of STING agonist compounds described herein in naïve Balb/C mouse, single doses of STING agonist compounds were given at 1.5 mg/kg intravenously into female BALB/c mice (Orientbio, South Korea) at 6-8 weeks of age. Pharmacokinetics were studied following injection of the STING agonist compounds into Balb/C mice. Plasma samples were taken at various time points and stored frozen for analysis. The plasma concentrations of the STING agonist compounds at the indicated time points were measured using a LC-MS/MS analysis method.
Briefly, 250 μL of acetonitrile (ACN) solution was added in both 50 µL of sample and 50 µL of plasma containing 10 nM Dextromethorphan (internal standard), and the solutions were mixed vigorously using a vortex mixer for 5 minutes. The samples were then spun down at 14,000 rpm, 4° C. for 5 minutes. 100 μL of supernatants were combined with 100 μL of mobile phase A (0.1% formic acid in water with 5% ACN) and mixed thoroughly. The samples were measured for the STING agonist compounds using a LC-MS/MS (Nexera LC40 (SHIMADZU) and QTRAP4500 (SCIEX)).

The nature of series [2]: In vitro cell cytotoxicity in CD34+ HSC (CellTiter-Glo). As to conditions: cd34+ hscs. The class given is cell-based. As to the method: The CD34^+ hematopoietic stem cells (HSCs) were purchased from […]™ (#70002.3). The cells (2×10^4 cells per well) were cultured in StemSpan™ SFEM II medium supplemented with StemSpan™ CD34+ Expansion Supplement (#02691) in a 6-well plate at 37° C. for 7 days. On day 3 or 4, an equal volume of fresh complete medium was added into the cell culture. On day 7, the cells (4×10^4 cells per well) were seeded in a 96-well white plate and rested for 24 hours in the same condition.
After 72 hours, the cell viability was measured using CellTiter-Glo Luminescent Cell Viability Assay (Promega, #G7573) according to the manufacture's instruction. The signal was detected using an EnVision Xcite multilabel reader and data were analyzed using GraphPad Prism 8 software.
(In ATP-based viability assays light output follows the ATP content of the culture.)

A further series deals with T3, hSTING-HAQ (Homo sapiens, UniProt Q86WV6, G230A/H232R/R293Q/R71H).
T3 construct: expressing the endogenous STING variant HAQ; host or cells: THP1 Dual
T3 sequence (Q86WV6 whole entry R71H/G230A/H232R/R293Q): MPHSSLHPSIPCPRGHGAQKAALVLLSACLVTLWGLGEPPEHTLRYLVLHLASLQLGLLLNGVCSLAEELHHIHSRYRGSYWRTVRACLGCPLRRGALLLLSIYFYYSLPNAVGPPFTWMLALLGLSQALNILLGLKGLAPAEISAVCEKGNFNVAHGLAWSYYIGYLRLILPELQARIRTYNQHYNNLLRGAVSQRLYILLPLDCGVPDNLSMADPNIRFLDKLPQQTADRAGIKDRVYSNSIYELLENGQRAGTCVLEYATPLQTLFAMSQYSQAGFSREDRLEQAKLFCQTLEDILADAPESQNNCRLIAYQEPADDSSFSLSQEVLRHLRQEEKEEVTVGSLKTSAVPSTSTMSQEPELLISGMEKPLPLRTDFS
Nature of the series: STING agonist activity, THP1 Dual reporter cells expressing endogenous STING variant HAQ. The class given is cell-based. To be noted: IRF luciferase, 24 hours. As to the method:
as §1, §2

Series [3] can be described thus: In vitro cell cytotoxicity in PBMCs (CellTiter-Glo). Format: cell-based. As to the method:
PBMCs were also purchased from […]™ (#700025.2). The cells (8.0×10^4 cells per well) were seeded in a flat-bottomed 96-well plate in RPMI 1640 medium (Gibco, #22400097) with 10% heat-inactivated FBS and 1×Antibiotic-Antimycotic (Gibco, #15240062) and rested for 24 hours at 37° C. […] After 72 hours, the cell viability was measured using CellTiter-Glo Luminescent Cell Viability Assay (Promega, #G7573) according to the manufacture's instruction. The signal was detected using an EnVision Xcite multilabel reader and data were analyzed using GraphPad Prism 8 software.
To verify the effect of the STING agonist compounds in normal cell cytotoxicity, the PBMCs were treated with the STING agonist compounds for 3 days and measured the percentage of cell death.

The next series concerns the target T4, hSTING-H232 (Homo sapiens, UniProt Q86WV6).
T4 construct: host or cells: THP1 Dual KI-hSTING (STING HAQ gene removed, H232 variant gene introduced)
The experiment in a line: STING agonist activity, THP1 Dual reporter cells with STING H232 variant. Format: cell-based. To be noted: IRF luciferase, 24 hours. As to the method: as §1, §2

Experimental findings from patent US20260317357A1, “HETEROCYCLIC COMPOUNDS AS STING AGONISTS” (LigaChem Biosciences Inc., priority 2022, published 2026) are described below.

T1 sequence (Q86WV6 whole entry H232R): as the sequence (Q86WV6 whole entry R71H/G230A/H232R/R293Q) above, with H71R, A230G, Q293R counted along it
T2 sequence (Q86WV6 whole entry): as the sequence (Q86WV6 whole entry R71H/G230A/H232R/R293Q) above, with H71R, A230G, R232H, Q293R counted along it
T4 sequence (Q86WV6 whole entry): as the sequence (Q86WV6 whole entry R71H/G230A/H232R/R293Q) above, with H71R, A230G, R232H, Q293R counted along it

One may read the EC50 as the concentration needed to bring the measured effect to its halfway point. Higher therefore signals weaker potency. Broadly, the AUC(0-inf) is total exposure, with the tail of the curve extrapolated. Higher therefore signals high exposure. In general, AUC(0-t) refers to exposure summed from dosing to a finite time, without extrapolation to infinity. The low end stands for low exposure, the high end for high exposure. For orientation: Cmax means the peak of the concentration-time curve. By clearance is commonly meant the volume of plasma or blood freed of the substance per unit of time. A lower clearance goes with inefficient removal. One may read the half-life as the time needed for the level to fall by half in the phase considered. The low end stands for rapid decline, the high end for slow decline. `CCn1nc(C)cc1C(=O)Nc1nc2cc(C(N)=O)cc(OC)c2n1C/C=C/Cn1c(NC(=O)c2cc(C)nn2CC)nc2cc(C(N)=O)cc(OC/C=C/CN3CCCN3)c21` [Compound 133]: on hSTING-R232, it took 0.33 nM to reach a half-maximal effect (EC50). At human STING, a half-maximal response (EC50) required 0.43 nM. In series [1], this molecule registered an AUC(0-inf) of 950 ± 110 ng·h/mL, an AUC(0-t) of 920 ± 110 ng·h/mL, a C0 of 4500 ± 850 ng/mL and a Cmax of 2650 ± 400 ng/mL. In series [1], the “AUC∞, norm” value stood at 0.63 ± 0.07 kg·h/L; the “Cmax, norm” value turned out to be 1.76 ± 0.27 kg/L; the clearance was 26.5 mL/min/kg; the half-life was 1.61 ± 0.02 h. In addition, the Vd in series [1] is 1.39 ± 0.21 L/kg.
For orientation: CC50 means the concentration giving 50% cytotoxicity. As to `CCn1nc(C)cc1C(=O)Nc1nc2cc(C(N)=O)cc(OC)c2n1C/C=C/Cn1c(NC(=O)c2cc(C)nn2CC)nc2cc(C(N)=O)cc(OC/C=C/CN3CCNCC3=O)c21` [Compound 28], the CC50 at 72 h in series [2] stood at 24.9 nM; in series [3] it was 12.7 nM. The EC50 at hSTING-HAQ worked out at 15.5 nM; at hSTING-R232, 3.37 nM; at hSTING-H232 it was 9.5 nM.
Consider `CCc1nc(C)oc1C(=O)Nc1nc2cc(C(N)=O)cnc2n1C/C=C/Cn1c(NC(=O)c2oc(C)nc2CC)nc2cc(C(N)=O)cc(OCCCO)c21` [Comparative #2, reference compound], for which the EC50 on hSTING-HAQ came to 89.4 nM; at hSTING-R232, 3.39 nM; on hSTING-H232 it was 9.5 nM. Further, in series [1], the “AUC∞, norm” value was 0.05 ± 0.01 kg·h/L. Moreover, the “Cmax, norm” value in series [1] was found to be 0.16 ± 0.02 kg/L.
`CCn1nc(C)cc1C(=O)Nc1nc2cc(C(N)=O)cc(OC)c2n1C/C=C/Cn1c(NC(=O)c2cc(C)nn2CC)nc2cc(C(N)=O)cc(OCCCN3CCOCC3)c21` [Comparative #1, reference compound] showed a cytotoxic concentration (CC50) at 72 h in series [3] of 3.3 nM. Also, in series [1], the “AUC∞, norm” value worked out at 0.66 ± 0.07 kg·h/L and the “Cmax, norm” value turned out to be 1.94 ± 0.30 kg/L.
Turning to `CCn1nc(C)cc1C(=O)Nc1nc2cc(C(N)=O)cc(OC)c2n1C/C=C/Cn1c(NC(=O)c2cc(C)nn2CC)nc2cc(C(N)=O)cc(OC/C=C/Cn3cc(N)cn3)c21` [Compound 55], in series [2], the CC50 at 72 h came out at 7.9 nM. In addition, the EC50 on hSTING-HAQ was determined as 6.3 nM. Further, the EC50 at hSTING-R232 worked out at 0.5 nM. In addition, half-maximal cytotoxicity in series [3] (CC50 at 72 h) was put at 4 nM. Moreover, at human STING, the EC50 came to 0.22 nM. Moreover, the EC50 on hSTING-H232 worked out at 5.5 nM. Further, in series [1], the AUC(0-inf) turned out to be 5160 ± 120 ng·h/mL, the AUC(0-t) came out at 5110 ± 120 ng·h/mL, the C0 amounted to 21100 ± 2210 ng/mL and the Cmax is 14100 ± 590 ng/mL. In series [1], the “AUC∞, norm” value was determined as 3.44 ± 0.08 kg·h/L; the “Cmax, norm” value is on record as 9.42 ± 0.39 kg/L; the clearance is 4.83 mL/min/kg; the half-life is 1.2 ± 0.08 h. Besides, in series [1], the Vd came out at 0.15 L/kg.
In series [2], `CCn1nc(C)cc1C(=O)Nc1nc2cc(C(N)=O)cc(OC/C=C/Cn3cc(N)cn3)c2n1C/C=C/Cn1c(NC(=O)c2cc(C)nn2CC)nc2cc(C(N)=O)cc(OCCCC(=O)O)c21` [Compound 65] had a CC50 at 72 h of 3.9 nM. This molecule also showed an EC50 at hSTING-HAQ of 25.5 nM. The EC50 on hSTING-R232 worked out at 1.7 nM. Besides, in series [3], the CC50 at 72 h was 18.5 nM. On human STING, this molecule showed an EC50 of 0.43 nM. This molecule also had an EC50 on hSTING-H232 of 7 nM. In addition, in series [1], the AUC(0-inf) worked out at 440 ± 440 ng·h/mL, the AUC(0-t) was found to be 430 ± 50 ng·h/mL, the C0 was determined as 1300 ± 430 ng/mL and the concentration peaked (Cmax) at 960 ± 170 ng/mL. In series [1], the “AUC∞, norm” value was found to be 0.29 ± 0.03 kg·h/L; the “Cmax, norm” value came out at 0.64 ± 0.11 kg/L; the clearance is 57.5 mL/min/kg; the half-life is 0.47 ± 0.08 h. Besides, in series [1], the Vd was 1.58 ± 0.13 L/kg.
